Measurements as given in patent US20140011755A1, “Cardiac Glycosides for Treating Autoimmune Disease” (Department of Veterans Affairs, priority 2010, published 2014).

Key:
[1] = tested on: TNF-mediated NFκB activity in HeLa cells; test: NFκB luciferase reporter assay in TNF-stimulated HeLa cells; assay type: cell-based; conditions: pre-treatment 6 hours with 0-500 nM, 50 ng/mL TNF
Description: (§1) FIG. 8. […] Values represent mean light units produced. Error bars represent SEM, and statistical significance was determined by unpaired T-test. Single and double asterisks represent P-values of 0.01 or 0.001, respectively. […] Samples were harvested at designated time points and were fractionated into nuclear and cytoplasmic lysates (Pierce). Lysates were quantified using BCA (Pierce), and were equally loaded according to total protein. Membranes were probed for levels of nuclear phospho-p65 (ReIA), phospho-ReIB, and histone (histone served as loading control and fractionation method control) and cytoplasmic degradation of IκBα (beta-tubulin served as loading control and fractionation method control).
(§2) HeLa cells were co-transfected with the reporter pNFκB-luc and control vector pTAL (Renilla) for 18 h prior to incubation with 0-500 nM cardiac glycoside for 6 h. Cells are stimulated with 50 ng/mL TNF. […] FIG. 8 B).

[2] = tested on: nuclear phospho-p65; test: Western blot of nuclear phospho-p65 in CD40L-stimulated CIA B cells; assay type: cell-based, mice; conditions: 33 nM for 1 h, 50 ng/mL CD40L
Description: as §1, §2

C[C@H]1O[C@@H](O[C@H]2[C@@H](O)C[C@H](O[C@H]3[C@@H](O)C[C@H](O[C@H]4CC[C@@]5(C)[C@H](CC[C@@H]6[C@@H]5CC[C@]5(C)[C@@H](C7=CC(=O)OC7)CC[C@]65O)C4)O[C@@H]3C)O[C@@H]2C)C[C@H](O)[C@@H]1O [Digitoxin, digitoxin] was tested, and the “TNF-mediated NFκB activation (luciferase light units)” value [1] was “reduced TNF-mediated NFκB activation in a dose-dependent fashion” and the “amount of nuclear phospho-p65 following CD40L stimulation” value [2] was “significantly reduced”.
